Data on four compounds can be found in ChEMBL document CHEMBL4311981, “Synthesis, anticancer activity, and molecular modeling of 1,4-naphthoquinones that inhibit MKK7 and Cdc25” (Eur J Med Chem, 2019).

Calls of active or inactive are those of the source. The rule behind the calls is not given here.

For data set [1], the system named is THP-1. The data set can be described thus: Cytotoxicity against human THP1 cells assessed as reduction in cell viability incubated for 24 hrs by CellTiter-Glo luminescent cell viability assay. The class given is functional, cell-based. Particulars: THP-1, 24 h.
Data set [2] concerns MONO-MAC-6. The data set can be described thus: Cytotoxicity against human MONO-MAC-6 cells assessed as reduction in cell viability incubated for 24 hrs by CellTiter-Glo luminescent cell viability assay. The class given is functional, cell-based. The note with it: MONO-MAC-6, 24 h. On the technique in general: ATP-based viability assays read luminescence as a measure of living cells.

For data set [3], the system named is HL-60. In words: Cytotoxicity against human HL60 cells assessed as reduction in cell viability incubated for 24 hrs by CellTiter-Glo luminescent cell viability assay. The class given is functional, cell-based. The note with it: HL-60, 24 h.
Data set [4] concerns U-937. In words: Cytotoxicity against human U937 cells assessed as reduction in cell viability incubated for 24 hrs by CellTiter-Glo luminescent cell viability assay. The class given is functional, cell-based. Particulars: U-937, 24 h.
Data set [5] relates to SW982. In words: Cytotoxicity against human SW982 cells assessed as reduction in cell viability at <50 uM incubated for 24 hrs by CellTiter-Glo luminescent cell viability assay. Format: functional, cell-based.
Data set [6] relates to MCF7. In words: Cytotoxicity against human MCF7 cells assessed as reduction in cell viability at <50 uM incubated for 24 hrs by CellTiter-Glo luminescent cell viability assay. Format: functional, cell-based.
The next data set deals with LS174T. In words: Cytotoxicity against human LS174T cells assessed as reduction in cell viability at <50 uM incubated for 24 hrs by CellTiter-Glo luminescent cell viability assay. Format: functional, cell-based.
For a further data set, the system named is A549. The data set can be described thus: Cytotoxicity against human A549 cells assessed as reduction in cell viability at <50 uM incubated for 24 hrs by CellTiter-Glo luminescent cell viability assay. The class given is functional, cell-based.
Data set [7] relates to PBMC. The data set can be described thus: Cytotoxicity against human PBMC cells assessed as reduction in cell viability at <50 uM incubated for 24 hrs by CellTiter-Glo luminescent cell viability assay. The class given is cell-based.
Data set [8] addresses T1, Dual specificity mitogen-activated protein kinase kinase 7 (Homo sapiens) (UniProt O14733).
T1 sequence (whole entry): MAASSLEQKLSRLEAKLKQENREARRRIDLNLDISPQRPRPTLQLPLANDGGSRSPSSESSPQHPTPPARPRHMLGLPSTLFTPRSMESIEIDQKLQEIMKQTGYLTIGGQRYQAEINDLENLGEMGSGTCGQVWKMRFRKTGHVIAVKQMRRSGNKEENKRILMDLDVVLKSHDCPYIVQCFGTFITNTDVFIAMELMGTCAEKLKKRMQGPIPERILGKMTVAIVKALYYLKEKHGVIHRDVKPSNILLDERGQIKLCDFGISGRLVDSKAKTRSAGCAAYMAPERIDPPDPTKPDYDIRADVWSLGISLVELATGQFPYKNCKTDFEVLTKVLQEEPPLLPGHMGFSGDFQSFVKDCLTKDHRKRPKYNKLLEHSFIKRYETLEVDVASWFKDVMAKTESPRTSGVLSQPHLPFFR
In words: Binding affinity to MKK7 (unknown origin) expressed in HEK293 cells assessed as dissociation constant at <30 uM by kinomescan method. Format: cell-based.

Data set [9] addresses T2, Neutrophil elastase (Homo sapiens) (UniProt P08246).
T2 sequence (whole entry): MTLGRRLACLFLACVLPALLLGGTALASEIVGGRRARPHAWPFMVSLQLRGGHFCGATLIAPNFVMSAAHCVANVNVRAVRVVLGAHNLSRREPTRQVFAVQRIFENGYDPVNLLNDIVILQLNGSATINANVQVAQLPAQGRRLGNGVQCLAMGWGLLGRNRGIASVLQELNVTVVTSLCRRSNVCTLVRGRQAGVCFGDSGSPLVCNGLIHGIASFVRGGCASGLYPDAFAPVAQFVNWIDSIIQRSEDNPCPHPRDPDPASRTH
The data set can be described thus: Inhibition of recombinant HNE (unknown origin) at <50 uM using N-methylsuccinyl-Ala-Ala-Pro-Val-7-amino-4-methylcoumarin, as a substrate measured every 30 sec for 10 mins by fluorometric assay.

The target of data set [10] is T3, M-phase inducer phosphatase 1 (Homo sapiens, UniProt P30304).
T3 sequence (P30304 whole entry): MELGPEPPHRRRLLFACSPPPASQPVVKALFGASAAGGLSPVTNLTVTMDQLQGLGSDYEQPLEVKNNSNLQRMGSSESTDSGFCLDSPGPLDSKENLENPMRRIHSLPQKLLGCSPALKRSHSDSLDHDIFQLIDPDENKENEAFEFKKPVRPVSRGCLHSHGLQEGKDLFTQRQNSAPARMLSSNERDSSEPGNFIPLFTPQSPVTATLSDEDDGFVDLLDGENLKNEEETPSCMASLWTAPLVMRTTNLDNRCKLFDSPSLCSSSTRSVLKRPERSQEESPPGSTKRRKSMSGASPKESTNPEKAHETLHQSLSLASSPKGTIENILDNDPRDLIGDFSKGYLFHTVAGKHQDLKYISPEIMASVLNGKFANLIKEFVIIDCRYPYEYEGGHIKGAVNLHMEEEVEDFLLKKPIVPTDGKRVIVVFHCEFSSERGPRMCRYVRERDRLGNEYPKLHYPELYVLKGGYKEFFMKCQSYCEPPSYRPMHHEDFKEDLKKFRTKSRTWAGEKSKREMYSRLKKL
Description: Inhibition of recombinant Cdc25A (unknown origin) using OMFP as substrate measured every 30 sec for 10 mins by fluorometric assay

Data set [11] addresses T4, M-phase inducer phosphatase 2 (Homo sapiens, UniProt P30305).
T4 sequence (P30305 whole entry): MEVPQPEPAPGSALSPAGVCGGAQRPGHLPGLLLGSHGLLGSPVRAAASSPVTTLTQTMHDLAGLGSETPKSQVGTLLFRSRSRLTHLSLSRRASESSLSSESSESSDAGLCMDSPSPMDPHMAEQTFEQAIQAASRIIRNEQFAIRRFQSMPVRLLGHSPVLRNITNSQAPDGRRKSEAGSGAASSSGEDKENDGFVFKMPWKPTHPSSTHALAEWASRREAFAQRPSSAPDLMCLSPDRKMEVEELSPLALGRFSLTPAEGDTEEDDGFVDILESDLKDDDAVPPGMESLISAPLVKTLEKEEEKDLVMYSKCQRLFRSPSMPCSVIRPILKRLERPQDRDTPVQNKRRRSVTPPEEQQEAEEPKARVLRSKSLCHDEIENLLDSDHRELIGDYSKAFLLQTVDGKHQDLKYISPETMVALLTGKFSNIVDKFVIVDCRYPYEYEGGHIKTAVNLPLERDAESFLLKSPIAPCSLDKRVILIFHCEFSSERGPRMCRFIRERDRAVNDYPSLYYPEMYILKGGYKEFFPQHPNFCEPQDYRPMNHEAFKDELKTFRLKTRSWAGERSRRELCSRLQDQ
Description: Inhibition of recombinant Cdc25B (unknown origin) using OMFP as substrate measured every 30 sec for 10 mins by fluorometric assay

Data set [12] has as its system Jurkat. In words: cells. Particulars: Homo sapiens, 24 h.
Description: Cytotoxicity against human Jurkat cells assessed as reduction in cell viability incubated for 24 hrs by CellTiter-Glo luminescent cell viability assay
Data set [13] relates to THP-1. In words: Cytotoxicity against human THP1 cells assessed as reduction in cell viability at <50 uM incubated for 24 hrs by CellTiter-Glo luminescent cell viability assay. The class given is functional, cell-based.
In data set [14] the test system is MONO-MAC-6. In words: Cytotoxicity against human MONO-MAC-6 cells assessed as reduction in cell viability at <50 uM incubated for 24 hrs by CellTiter-Glo luminescent cell viability assay. Format: functional, cell-based.
For data set [15], the system named is HL-60. In words: Cytotoxicity against human HL60 cells assessed as reduction in cell viability at <50 uM incubated for 24 hrs by CellTiter-Glo luminescent cell viability assay. The class given is functional, cell-based.
The test system of data set [16] is Jurkat. In words: Cytotoxicity against human Jurkat cells assessed as reduction in cell viability at <50 uM incubated for 24 hrs by CellTiter-Glo luminescent cell viability assay. The class given is functional, cell-based.
Data set [17] deals with U-937. In words: Cytotoxicity against human U937 cells assessed as reduction in cell viability at <50 uM incubated for 24 hrs by CellTiter-Glo luminescent cell viability assay. Format: functional, cell-based.
Another data set concerns the target T5, Neutrophil elastase (Homo sapiens, UniProt P08246).
T5 sequence (P08246 whole entry): T2 sequence (whole entry)
The data set can be described thus: Inhibition of recombinant HNE (unknown origin) using N-methylsuccinyl-Ala-Ala-Pro-Val-7-amino-4-methylcoumarin, as a substrate measured every 30 sec for 10 mins by fluorometric assay.

In data set [18] the test system is SW982. In words: Cytotoxicity against human SW982 cells assessed as reduction in cell viability incubated for 24 hrs by CellTiter-Glo luminescent cell viability assay. The class given is functional, cell-based. Particulars: SW982, 24 h.
For data set [19], the system named is MCF7. The data set can be described thus: Cytotoxicity against human MCF7 cells assessed as reduction in cell viability incubated for 24 hrs by CellTiter-Glo luminescent cell viability assay. The class given is functional, cell-based. Particulars: MCF7, 24 h.
Data set [20] deals with PBMC. The data set can be described thus: Cytotoxicity against human PBMC cells assessed as reduction in cell viability incubated for 24 hrs by CellTiter-Glo luminescent cell viability assay. The note with it: read-out: IC50. The class given is cell-based.
The target in data set [21] is T6, Dual specificity mitogen-activated protein kinase kinase 7 (Homo sapiens, UniProt O14733).
T6 sequence (O14733 whole entry): T1 sequence (whole entry)
In words: biochemical.
Description: Binding affinity to MKK7 (unknown origin) expressed in HEK293 cells assessed as dissociation constant by kinomescan method

As for `COc1ccc(OC)c2c1C(=O)C=C(SCCC(=O)O)C2=O`, the IC50 is 33.3 µM in the data set with THP-1 [1]; 12.8 µM in the data set on MONO-MAC-6 [2]; 28.7 µM in the data set on HL-60 [3]; 26.6 µM in the data set with U-937 [4]; 26 µM in [10]; 7.8 µM in data set [11]. Besides, in the data set with Jurkat [12], the IC50 amounted to 21.3 µM. The outcome (in the data set with SW982 [5]; with MCF7 [6]; in the data set on LS174T; in the data set on A549; in data set [8]) was inactive. In the data set with PBMC [7], the Activity entry is “Non-Toxic”. For the same compound, the inhibition result in data set [9] was “inactive”.
With `COC1=C(C)C(=O)c2ccccc2C1=O`, the IC50 amounted to 47.3 µM with THP-1 [1]; 18.4 µM with MONO-MAC-6 [2]; 20.4 µM with HL-60 [3]; 35.1 µM with U-937 [4]; 22.3 µM in data set [10]; 33.1 µM in data set [11]. The compound further showed an IC50 in the data set on Jurkat [12] of 49.2 µM. In addition, the result (in the data set with SW982 [5]; in the data set with LS174T; with A549; in data set [8]) was inactive. Also, the Activity result in the data set with PBMC [7] was “Non-Toxic”. Also, in data set [9], the inhibition result is “inactive”.
Regarding `CC(C)=CCC1=C(O)C(=O)c2ccccc2C1=O` [LAPACHOL], the outcome with THP-1 [13], in the data set on MONO-MAC-6 [14], with HL-60 [15], in the data set with SW982 [5], in the data set on Jurkat [16] and in the data set with U-937 [17] was inactive. Besides, the outcome (in the data set with MCF7 [6]; in the data set on LS174T; in the data set on A549; in data set [8]) was inactive. Moreover, the Activity entry in the data set with PBMC [7] is on record as “Non-Toxic”. For the same compound, the inhibition entry in [9] was “inactive”. In addition, the IC50 was found to be 33.2 µM in data set [10] and 42.7 µM in data set [11].
Consider `CC(SC1=CC(=O)c2ccccc2C1=O)C(=O)O` (configuration not stated), for which the IC50 on Neutrophil elastase is 36.1 µM; in the data set with MONO-MAC-6 [2], 43.6 µM; in the data set with HL-60 [3] it was 20.5 µM; in the data set on SW982 [18], 21.1 µM; in the data set on U-937 [4], 34.6 µM; in the data set with MCF7 [19], 27.9 µM. Also, the IC50 in the data set with PBMC [20] turned out to be 23.8 µM; in data set [10], 5.4 µM; in data set [11], 5.2 µM; in the data set on Jurkat [12], 17.9 µM. The compound further yielded a Kd in data set [21] of 2.1 µM.

What is called IC50 is the concentration at which inhibition is half-maximal. What is called Kd is the free concentration of one partner at which half of the binding sites on the other are occupied at equilibrium, for simple one-to-one binding. Low readings indicate higher affinity, high ones lower affinity.
